Like-named read-outs stand apart in the source and are kept apart here.

Experiment [1] concerns the target KLK7.
In experiment [2] the target is KLK7. This is another data set of the same source.
Source text: Head of the field: Ki [nM]
In contrast to the first generation, they contain only two cysteines cyclized with one linker. The K values are shown as mean of three measurements ±SD.
First copying reader's note: The two cysteines are bridged by a drawn acetone (C=O) linker shown above the sequence columns; the Ki cells hold the value ± its error against KLK7.

For orientation: Ki means the equilibrium dissociation constant of an inhibitor or competing ligand from its target. Higher therefore signals a looser hold on the target. On to P C L Y L S C P [compound 089], for which the affinity at KLK7 [1] corresponds to a Ki of 50 ± 5 nM. P C L Y M A R C S [compound 111] had a Ki at KLK7 [2] of 10 ± 1.3 nM.

Consider P C L Y L S R C S [compound 095], for which the affinity at KLK7 [2] corresponds to a Ki of 90 ± 7 nM.

The values are drawn from patent US20220267379A1, “NOVEL INHIBITORS OF […] AND USES THEREOF” (Ecole Polytechnique Federale de Lausanne (EPFL), priority 2019, published 2022).
